# Measurements reported in US20200031811A1, “SUBSTITUTED MONO- AND POLYAZANAPHTHALENE DERIVATIVES AND THEIR USE” (Basilea Pharmaceutica International AG, priority 2015, published 2020).
# Test system: human pancreatic cancer cell line MiaPaCa2 (ATCC CRL-1420)
# Assay: Cell growth assay (CellTiterGlo, 72 hours)
# Type: cell-based
# Settings: MIA PaCa-2, MiaPaCa2 cells, 72 hours, read-out: IC50 MiaPaCa
# Method in brief: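 MiaPaCa2 cells (10^3/well) seeded in supplemented DMEM overnight, then exposed in quadruplicate to compound at 100 down to 0.1 μM for 72 h at 37° C. Growth read by CellTiterGlo luminescence, medium-only background subtracted, normalised to untreated cells; IC50 = concentration reducing growth to 50%.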
row,Compound,IC50
1,NCc1cccc(Nc2ccc3cncc(-c4cc5ccccc5o4)c3c2)c1 [Example 136],20.6 µM
2,"Nc1cc(Nc2ccc3cncc(-c4cc5ccccc5o4)c3c2)ccn1 [Example 137, N4-[4-(Benzofuran-2-yl)-6-isoquinolyl]pyridine-2,4-diamine]",3.25 µM
3,"Nc1ccc(Nc2ccc3cncc(-c4cc5ccccc5o4)c3c2)cn1 [Example 138, N5-[4-(Benzofuran-2-yl)-6-isoquinolyl]pyridine-2,5-diamine]",12.1 µM
4,"c1ccc2oc(-c3cncc4ccc(Nc5ccncc5)cc34)cc2c1 [Example 139, 4-(Benzofuran-2-yl)-N-(4-pyridyl)isoquinolin-6-amine]",10.4 µM
5,"N[C@H]1CC[C@H](Nc2cc3c(-c4cc5ccccc5o4)cncc3cc2Cl)CC1 [Example 140, N4-[4-(Benzofuran-2-yl)-7-chloro-6-isoquinolyl]cyclohexane-1,4-diamine]",1.87 µM
6,"COc1cc2cncc(-c3cc4ccccc4o3)c2cc1N[C@H]1CC[C@H](N)CC1 [Example 141, N4-[4-(Benzofuran-2-yl)-7-methoxy-6-isoquinolyl]cyclohexane-1,4-diamine]",2.26 µM
7,"N[C@H]1CC[C@H](Nc2cc(Cl)c3cncc(-c4cc5ccccc5o4)c3c2)CC1 [Example 142, N4-[4-(Benzofuran-2-yl)-8-chloro-6-isoquinolyl]cyclohexane-1,4-diamine]",3.79 µM
8,"COc1cc(N[C@H]2CC[C@H](N)CC2)cc2c(-c3cc4ccccc4o3)cncc12 [Example 143, N4-[4-(benzofuran-2-yl)-8-methoxy-6-isoquinolyl]cyclohexane-1,4-diamine]",1.96 µM
9,"c1ccc2oc(-c3cncc4ccc(OCc5ccncc5)cc34)cc2c1 [Example 146, 4-(Benzofuran-2-yl)-6-(4-pyridylmethoxy)isoquinoline]",20 µM
10,"c1ccc2oc(-c3cncc4ccc(NCc5ccncc5)cc34)cc2c1 [Example 147, 4-(Benzofuran-2-yl)-N-(4-pyridylmethyl)isoquinolin-6-amine]",7.14 µM
11,"Nc1ncc(-c2cc3ccccc3o2)c2cc(CNc3ccncc3)ccc12 [Example 151, 4-(Benzofuran-2-yl)-6-[(4-pyridylamino)methyl]isoquinolin-1-amine]",2.51 µM
12,"Nc1cc[n+](Cc2ccc3c(N)ncc(-c4cc5ccccc5o4)c3c2)cc1 [Example 152, 6-[(4-Aminopyridin-1-ium-1-yl)methyl]-4-(benzofuran-2-yl)isoquinolin-1-amine]",1.56 µM
13,"N[C@H]1CC[C@H](C(=O)Nc2ccc3cncc(-c4cc5ccccc5o4)c3c2)CC1 [Example 156, trans-4-Amino-N-[4-(benzofuran-2-yl)-6-isoquinolyl]cyclohexanecarboxamide]",10.4 µM
14,N[C@H]1CC[C@@H](C(=O)Nc2ccc3cncc(-c4cc5ccccc5o4)c3c2)CC1 [Example 157],7.88 µM
15,"N[C@H]1CC[C@H](NC(=O)c2ccc3cncc(-c4cc5ccccc5o4)c3c2)CC1 [Example 160, Trans-N-(4-aminocyclohexyl)-4-(benzofuran-2-yl)isoquinoline-6-carboxamide]",12.2 µM
16,"Nc1ncc2ccc(CNc3ccncc3)cc2c1-c1cc2ccccc2o1 [Example 165, 4-(Benzofuran-2-yl)-6-[(4-pyridylamino)methyl]isoquinolin-3-amine]",5.7 µM

# Next, values leading:
row,IC50,Compound
1,4.61 µM,"NC1CCN(Cc2ccc3nncc(-c4cc5ccccc5o4)c3c2)CC1 [Example 144, 1-[[4-(Benzofuran-2-yl)cinnolin-6-yl]methyl]piperidin-4-amine]"
2,29 µM,"NC1CCN(Cc2ccc3nncc(-c4ccc(Cl)cc4)c3c2)CC1 [Example 145, 1-[[4-(4-Chlorophenyl)cinnolin-6-yl]methyl]piperidin-4-amine]"
3,1.75 µM,"N[C@H]1CC[C@H](Nc2ccc3cncc(-c4cc5ccccc5o4)c3c2)CC1 [Example 148, 4-(Benzofuran-2-yl)-N-(4-(trans)aminocyclohexyl)isoquinolin-6-amine]"
4,3.5 µM,"Nc1ncc(-c2cc3ccccc3o2)c2cc(CN3CCC(N)CC3)ccc12 [Example 153, 6-[(4-Amino-1-piperidyl)methyl]-4-(benzofuran-2-yl)isoquinolin-1-amine]"
5,24 µM,N[C@H]1CC[C@@H](NC(=O)c2ccc3cncc(-c4cc5ccccc5o4)c3c2)CC1 [Example 161]
6,9.88 µM,"Nc1ncc2ccc(CN3CCC(N)CC3)cc2c1-c1ccccc1 [Example 162, 6-[(4-Amino-1-piperidyl)methyl]-4-phenyl-isoquinolin-3-amine]"
7,13.8 µM,Nc1ncc2ccc(CN3CCC(N)CC3)cc2c1-c1ccc(O)cc1 [Example 163]
8,6.62 µM,"Nc1ncc2ccc(CN3CCC(N)CC3)cc2c1-c1cc2ccccc2o1 [Example 164, 6-[(4-Amino-1-piperidyl)methyl]-4-(benzofuran-2-yl)isoquinolin-3-amine]"
9,0.8 µM,"Cc1ccc(-c2cncc3ccc(CN4CCC(N)CC4)cc23)o1 [Example 167, 1-[[4-(5-methyl-2-furyl)-6-isoquinolyl]methyl]piperidin-4-amine]"
10,12.4 µM,NC1CCN(Cc2ccc3cncc(-c4ccc5[nH]ccc5c4)c3c2)CC1 [Example 168]
11,10.3 µM,NC1CCN(Cc2ccc3cncc(-c4ccc5cc[nH]c5c4)c3c2)CC1 [Example 169]
12,2.6 µM,NC1CCN(Cc2ccc3cncc(-c4cc5ccccc5s4)c3c2)CC1 [Example 170]
13,11.2 µM,NC1CCN(Cc2ccc3cncc(-c4ccc(Cl)s4)c3c2)CC1 [Example 171]
14,11.9 µM,NC1CCN(Cc2ccc3cncc(-c4ccc5occc5c4)c3c2)CC1 [Example 172]
15,9.87 µM,NC1CCN(Cc2ccc3cncc(-c4cnc5ccccc5c4)c3c2)CC1 [Example 173]
16,4.7 µM,NC1CCN(Cc2ccc3cncc(-c4ccc5ccccc5c4)c3c2)CC1 [Example 174]
17,7.72 µM,COc1ccc2oc(-c3cncc4ccc(CN5CCC(N)CC5)cc34)cc2c1 [Example 175]
18,29 µM,"NC1CCN(Cc2ccc3cncc(-c4ccc5ccccc5n4)c3c2)CC1 [Example 176, 1-[[4-(2-Quinolyl)-6-isoquinolyl]methyl]piperidin-4-amine]"
19,3.65 µM,"NC1CCN(Cc2ccc3cncc(-c4ccco4)c3c2)CC1 [Example 177, 1-[[4-(2-Furyl)-6-isoquinolyl]methyl]piperidin-4-amine]"
20,4.98 µM,NC1CCN(Cc2ccc3cncc(-c4cccs4)c3c2)CC1 [Example 178]
21,4.97 µM,NC1CCN(Cc2ccc3cncc(-c4ccoc4)c3c2)CC1 [Example 179]

# Molecular target: T1, MNK1 (Homo sapiens, UniProt Q9BUB5)
# T1 construct: purchased Life Technologies or Carna Biosciences PV6023 or 02-145; host or cells: baculovirus infected insect cells
# T1 sequence (Q9BUB5 whole entry): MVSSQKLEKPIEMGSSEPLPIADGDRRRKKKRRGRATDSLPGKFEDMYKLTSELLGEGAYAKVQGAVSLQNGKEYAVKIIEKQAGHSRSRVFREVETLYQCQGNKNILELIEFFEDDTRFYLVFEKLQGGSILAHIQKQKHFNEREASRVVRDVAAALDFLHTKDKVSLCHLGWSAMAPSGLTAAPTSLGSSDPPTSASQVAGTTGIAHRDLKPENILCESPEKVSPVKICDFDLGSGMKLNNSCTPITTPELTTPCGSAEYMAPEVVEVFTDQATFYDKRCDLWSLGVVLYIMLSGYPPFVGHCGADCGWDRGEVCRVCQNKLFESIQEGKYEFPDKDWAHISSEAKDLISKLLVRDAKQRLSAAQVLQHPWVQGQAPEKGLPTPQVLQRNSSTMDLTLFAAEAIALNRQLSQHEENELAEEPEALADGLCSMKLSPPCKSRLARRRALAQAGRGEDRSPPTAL
# Assay: MNK inhibition assay (Z-Lyte kinase assay, Ser/Thr 7 peptide)
# Type: biochemical
# Settings: at 1 μM; read-out: Inhibition of MNK1 activity at indicated concentration
# Method in brief: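 Recombinant GST-MNK1 from baculovirus-infected insect cells, Z-Lyte Ser/Thr 7 peptide, enzyme set for ~30% phosphorylation in buffer-only wells; 3 hours at 31° C. Compounds at 50–10000 nM (potent ones down to 0.5 nM), at least duplicate. IC50 from % substrate phosphorylation versus buffer-only wells, fluorescence read-out.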
row,inhibition at 1 µM,Compound
1,54%,"Nc1ncc2ccc(CN3CCC(N)CC3)cc2c1-c1ccccc1 [Example 162, 6-[(4-Amino-1-piperidyl)methyl]-4-phenyl-isoquinolin-3-amine]"

# Same assay, conditions: recombinant GST-MNK1, 3 hours at 31° C.
row,Compound,IC50
1,NCc1cccc(Nc2ccc3cncc(-c4cc5ccccc5o4)c3c2)c1 [Example 136],0.558 µM
2,"Nc1cc(Nc2ccc3cncc(-c4cc5ccccc5o4)c3c2)ccn1 [Example 137, N4-[4-(Benzofuran-2-yl)-6-isoquinolyl]pyridine-2,4-diamine]",1.09 µM
3,"Nc1ccc(Nc2ccc3cncc(-c4cc5ccccc5o4)c3c2)cn1 [Example 138, N5-[4-(Benzofuran-2-yl)-6-isoquinolyl]pyridine-2,5-diamine]",1.6 µM
4,"c1ccc2oc(-c3cncc4ccc(Nc5ccncc5)cc34)cc2c1 [Example 139, 4-(Benzofuran-2-yl)-N-(4-pyridyl)isoquinolin-6-amine]",0.903 µM
5,"N[C@H]1CC[C@H](Nc2cc3c(-c4cc5ccccc5o4)cncc3cc2Cl)CC1 [Example 140, N4-[4-(Benzofuran-2-yl)-7-chloro-6-isoquinolyl]cyclohexane-1,4-diamine]",0.01 µM
6,"COc1cc2cncc(-c3cc4ccccc4o3)c2cc1N[C@H]1CC[C@H](N)CC1 [Example 141, N4-[4-(Benzofuran-2-yl)-7-methoxy-6-isoquinolyl]cyclohexane-1,4-diamine]",0.187 µM
7,"N[C@H]1CC[C@H](Nc2cc(Cl)c3cncc(-c4cc5ccccc5o4)c3c2)CC1 [Example 142, N4-[4-(Benzofuran-2-yl)-8-chloro-6-isoquinolyl]cyclohexane-1,4-diamine]",0.18 µM
8,"COc1cc(N[C@H]2CC[C@H](N)CC2)cc2c(-c3cc4ccccc4o3)cncc12 [Example 143, N4-[4-(benzofuran-2-yl)-8-methoxy-6-isoquinolyl]cyclohexane-1,4-diamine]",0.474 µM
9,"c1ccc2oc(-c3cncc4ccc(OCc5ccncc5)cc34)cc2c1 [Example 146, 4-(Benzofuran-2-yl)-6-(4-pyridylmethoxy)isoquinoline]",0.268 µM
10,"c1ccc2oc(-c3cncc4ccc(NCc5ccncc5)cc34)cc2c1 [Example 147, 4-(Benzofuran-2-yl)-N-(4-pyridylmethyl)isoquinolin-6-amine]",0.092 µM
11,"Nc1ncc(-c2cc3ccccc3o2)c2cc(CNc3ccncc3)ccc12 [Example 151, 4-(Benzofuran-2-yl)-6-[(4-pyridylamino)methyl]isoquinolin-1-amine]",0.011 µM
12,"Nc1cc[n+](Cc2ccc3c(N)ncc(-c4cc5ccccc5o4)c3c2)cc1 [Example 152, 6-[(4-Aminopyridin-1-ium-1-yl)methyl]-4-(benzofuran-2-yl)isoquinolin-1-amine]",0.017 µM
13,"N[C@H]1CC[C@H](C(=O)Nc2ccc3cncc(-c4cc5ccccc5o4)c3c2)CC1 [Example 156, trans-4-Amino-N-[4-(benzofuran-2-yl)-6-isoquinolyl]cyclohexanecarboxamide]",0.371 µM
14,N[C@H]1CC[C@@H](C(=O)Nc2ccc3cncc(-c4cc5ccccc5o4)c3c2)CC1 [Example 157],0.05 µM
15,"N[C@H]1CC[C@H](NC(=O)c2ccc3cncc(-c4cc5ccccc5o4)c3c2)CC1 [Example 160, Trans-N-(4-aminocyclohexyl)-4-(benzofuran-2-yl)isoquinoline-6-carboxamide]",0.284 µM
16,"Nc1ncc2ccc(CNc3ccncc3)cc2c1-c1cc2ccccc2o1 [Example 165, 4-(Benzofuran-2-yl)-6-[(4-pyridylamino)methyl]isoquinolin-3-amine]",0.006 µM

# Results, then the molecule that gave them:
row,IC50,Compound
1,1.89 µM,"NC1CCN(Cc2ccc3nncc(-c4cc5ccccc5o4)c3c2)CC1 [Example 144, 1-[[4-(Benzofuran-2-yl)cinnolin-6-yl]methyl]piperidin-4-amine]"
2,2.72 µM,"NC1CCN(Cc2ccc3nncc(-c4ccc(Cl)cc4)c3c2)CC1 [Example 145, 1-[[4-(4-Chlorophenyl)cinnolin-6-yl]methyl]piperidin-4-amine]"
3,0.058 µM,"N[C@H]1CC[C@H](Nc2ccc3cncc(-c4cc5ccccc5o4)c3c2)CC1 [Example 148, 4-(Benzofuran-2-yl)-N-(4-(trans)aminocyclohexyl)isoquinolin-6-amine]"
4,0.131 µM,"Nc1ncc(-c2cc3ccccc3o2)c2cc(CN3CCC(N)CC3)ccc12 [Example 153, 6-[(4-Amino-1-piperidyl)methyl]-4-(benzofuran-2-yl)isoquinolin-1-amine]"
5,0.465 µM,N[C@H]1CC[C@@H](NC(=O)c2ccc3cncc(-c4cc5ccccc5o4)c3c2)CC1 [Example 161]
6,0.142 µM,Nc1ncc2ccc(CN3CCC(N)CC3)cc2c1-c1ccc(O)cc1 [Example 163]
7,0.847 µM,"Nc1ncc2ccc(CN3CCC(N)CC3)cc2c1-c1cc2ccccc2o1 [Example 164, 6-[(4-Amino-1-piperidyl)methyl]-4-(benzofuran-2-yl)isoquinolin-3-amine]"
8,1.04 µM,"Cc1ccc(-c2cncc3ccc(CN4CCC(N)CC4)cc23)o1 [Example 167, 1-[[4-(5-methyl-2-furyl)-6-isoquinolyl]methyl]piperidin-4-amine]"
9,0.76 µM,NC1CCN(Cc2ccc3cncc(-c4ccc5[nH]ccc5c4)c3c2)CC1 [Example 168]
10,0.247 µM,NC1CCN(Cc2ccc3cncc(-c4ccc5cc[nH]c5c4)c3c2)CC1 [Example 169]
11,0.361 µM,NC1CCN(Cc2ccc3cncc(-c4cc5ccccc5s4)c3c2)CC1 [Example 170]
12,0.189 µM,NC1CCN(Cc2ccc3cncc(-c4ccc(Cl)s4)c3c2)CC1 [Example 171]
13,0.27 µM,NC1CCN(Cc2ccc3cncc(-c4ccc5occc5c4)c3c2)CC1 [Example 172]
14,0.958 µM,NC1CCN(Cc2ccc3cncc(-c4cnc5ccccc5c4)c3c2)CC1 [Example 173]
15,0.465 µM,NC1CCN(Cc2ccc3cncc(-c4ccc5ccccc5c4)c3c2)CC1 [Example 174]
16,1.07 µM,COc1ccc2oc(-c3cncc4ccc(CN5CCC(N)CC5)cc34)cc2c1 [Example 175]
17,3.7 µM,"NC1CCN(Cc2ccc3cncc(-c4ccc5ccccc5n4)c3c2)CC1 [Example 176, 1-[[4-(2-Quinolyl)-6-isoquinolyl]methyl]piperidin-4-amine]"
18,0.125 µM,"NC1CCN(Cc2ccc3cncc(-c4ccco4)c3c2)CC1 [Example 177, 1-[[4-(2-Furyl)-6-isoquinolyl]methyl]piperidin-4-amine]"
19,0.154 µM,NC1CCN(Cc2ccc3cncc(-c4cccs4)c3c2)CC1 [Example 178]
20,0.276 µM,NC1CCN(Cc2ccc3cncc(-c4ccoc4)c3c2)CC1 [Example 179]
